Test results: patent publication US20230416330A1, “Optimized GIP Peptide Analogues” (Antag Therapeutics ApS, priority 2019, published 2023)
Starred links: 1 amine or outer side, 2 acyl side, 3 side chain; linkers in the order of their positions; H or OH if unused. Positions of bridges follow the written chain, without caps; N, C: chain ends. Non-standard residues stand in square brackets, D forms with d. Residues, ends and D or L forms follow the SMILES beside them. Chains are numbered I, II in the order given. No end group written: not given here. *: point of attachment. C20 diacid = O=C(O)CCCCCCCCCCCCCCCCCCC(=O)*; C16 diacid = O=C(O)CCCCCCCCCCCCCCC(=O)*; Glutaryl = O=C(CCCC(=O)[*:2])[*:1]; Palmitoyl = CCCCCCCCCCCCCCCC(=O)*; Aib = CC(C)(N)C(=O)O

Columns and labels:
[1] = Physical stability: fibril formation in Thioflavin T (ThT) assay with agitation; type: physicochemical; settings: for Avr lag time / Avr lag time (h): 25° C., agitation
In short: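 Peptides at 1, 5, 7.5 or 15 mg/ml in 50 mM sodium phosphate pH 7.4 or in water adjusted to pH 7.4 with NaOH, filtered 0.22 μm, with ThT added. Wells held a 3 mm silica bead under 300 rpm orbital agitation at 25° C. Emission at 486 nm tracked continuously; lag time = 10% of transition above baseline.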

[2] = Solubility by visual inspection of peptide solutions; type: physicochemical
In short: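 Peptides dissolved at 1, 5, 7.5 or 15 mg/ml in 50 mM sodium phosphate pH 7.4 or water adjusted to pH 7.4 with NaOH, with gentle mixing. Immediate solubility judged visually as a clear, colorless solution.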

CC[C@H](C)[C@H](NC(=O)[C@H](C)NC(=O)[C@H](CC(=O)O)NC(=O)[C@H](CCSC)NC(=O)[C@H](C)NC(=O)[C@@H](NC(=O)[C@H](CO)NC(=O)[C@H](Cc1ccc(O)cc1)NC(=O)[C@H](CC(=O)O)NC(=O)[C@H](CO)NC(=O)[C@@H](NC(=O)[C@H](Cc1ccccc1)NC(=O)[C@@H](NC(=O)CNC(=O)[C@@H](N)CCC(=O)O)[C@@H](C)O)[C@@H](C)CC)[C@@H](C)CC)C(=O)N[C@@H](CCCCNC(=O)CCCCCCCCCCCCCCC(=O)O)C(=O)N[C@@H](CCC(N)=O)C(=O)N[C@@H](CCC(N)=O)C(=O)N[C@@H](CC(=O)O)C(=O)N[C@@H](Cc1ccccc1)C(=O)N[C@H](C(=O)N[C@@H](CCC(=O)O)C(=O)N[C@@H](Cc1c[nH]c2ccccc12)C(=O)N[C@@H](CC(C)C)C(=O)N[C@@H](CC(C)C)C(=O)N[C@@H](C)C(=O)N[C@@H](CCC(N)=O)C(=O)N[C@@H](CCCCN)C(=O)N1CCC[C@H]1C(=O)N[C@@H](CO)C(=O)N[C@@H](CO)C(=O)NCC(=O)N[C@@H](C)C(=O)N1CCC[C@H]1C(=O)N1CCC[C@H]1C(=O)N1CCC[C@H]1C(=O)N[C@@H](CO)C(=O)O)C(C)C [AT748] (H-EGTFISDYSIAMDAIK(C16 diacid)QQDFVEWLLAQKPSSGAPPPS-OH; N-terminus assumed)
Avr lag time ([1]; 1 mg/ml, TFA, Phosphate (7.4)): <24 h | Visual appearance ([2]; 1 mg/ml, TFA, Phosphate (7.4)): Clear

CC[C@H](C)[C@H](NC(=O)[C@H](CO)NC(=O)[C@H](Cc1ccc(O)cc1)NC(=O)[C@H](CC(=O)O)NC(=O)[C@H](CO)NC(=O)[C@@H](NC(=O)[C@H](Cc1ccccc1)NC(=O)[C@@H](NC(=O)CNC(=O)[C@@H](N)CCC(=O)O)[C@@H](C)O)[C@@H](C)CC)C(=O)N[C@@H](C)C(=O)N[C@@H](CCSC)C(=O)N[C@@H](CC(=O)O)C(=O)N[C@@H](CCCCN)C(=O)N[C@H](C(=O)N[C@@H](CCCCNC(=O)CCCCCCCCCCCCCCCCCCC(=O)O)C(=O)N[C@@H](CCC(N)=O)C(=O)N[C@@H](CCC(N)=O)C(=O)N[C@@H](CC(=O)O)C(=O)N[C@@H](Cc1ccccc1)C(=O)N[C@H](C(=O)N[C@@H](CCC(=O)O)C(=O)N[C@@H](Cc1c[nH]c2ccccc12)C(=O)N[C@@H](CC(C)C)C(=O)N[C@@H](CC(C)C)C(=O)N[C@@H](C)C(=O)N[C@@H](CCC(N)=O)C(=O)N[C@@H](CCCCN)C(=O)N1CCC[C@H]1C(=O)N[C@@H](CO)C(=O)N[C@@H](CO)C(=O)NCC(=O)N[C@@H](C)C(=O)N1CCC[C@H]1C(=O)N1CCC[C@H]1C(=O)N1CCC[C@H]1C(=O)N[C@@H](CO)C(=O)O)C(C)C)[C@@H](C)CC [AT750] (H-EGTFISDYSIAMDKIK(C20 diacid)QQDFVEWLLAQKPSSGAPPPS-OH; N-terminus assumed)
Avr lag time (h) ([1]; 1 mg/ml, TFA, Phosphate (7.4)): fnd (Fnd = fibrils not detected within experiment time (96 hours) with agitation.) | Visual appearance ([2]; 1 mg/ml, TFA, Phosphate (7.4)): Clear

CCCCCCCCCCCCCCCC(=O)NCCCC[C@H](NC(=O)[C@@H](NC(=O)[C@H](CCCCN)NC(=O)[C@H](CC(=O)O)NC(=O)[C@H](CCSC)NC(=O)[C@H](C)NC(=O)[C@@H](NC(=O)[C@H](CO)NC(=O)[C@H](Cc1ccc(O)cc1)NC(=O)[C@H](CC(=O)O)NC(=O)[C@H](CO)NC(=O)[C@@H](NC(=O)[C@H](Cc1ccccc1)NC(=O)[C@@H](NC(=O)CNC(=O)[C@@H](N)CCC(=O)O)[C@@H](C)O)[C@@H](C)CC)[C@@H](C)CC)[C@@H](C)CC)C(=O)N[C@@H](CCC(N)=O)C(=O)N[C@@H](CCC(N)=O)C(=O)N[C@@H](CC(=O)O)C(=O)N[C@@H](Cc1ccccc1)C(=O)N[C@H](C(=O)N[C@@H](CCC(=O)O)C(=O)N[C@@H](Cc1c[nH]c2ccccc12)C(=O)N[C@@H](CC(C)C)C(=O)N[C@@H](CC(C)C)C(=O)N[C@@H](C)C(=O)N[C@@H](CCC(N)=O)C(=O)N[C@@H](CCCCN)C(=O)N1CCC[C@H]1C(=O)N[C@@H](CO)C(=O)N[C@@H](CO)C(=O)NCC(=O)N[C@@H](C)C(=O)N1CCC[C@H]1C(=O)N1CCC[C@H]1C(=O)N1CCC[C@H]1C(=O)N[C@@H](CO)C(=O)O)C(C)C [AT751] (H-EGTFISDYSIAMDKIK(Palmitoyl)QQDFVEWLLAQKPSSGAPPPS-OH; N-terminus assumed)
Avr lag time ([1]; 1 mg/ml, TFA, Phosphate (7.4)): <24 h | Visual appearance ([2]; 1 mg/ml, TFA, Phosphate (7.4)): Clear

CC[C@H](C)[C@H](NC(=O)[C@H](CCCCN)NC(=O)[C@H](CC(=O)O)NC(=O)[C@H](CCSC)NC(=O)C(C)(C)NC(=O)[C@@H](NC(=O)[C@H](CO)NC(=O)[C@H](Cc1ccc(O)cc1)NC(=O)[C@H](CC(=O)O)NC(=O)[C@H](CO)NC(=O)[C@@H](NC(=O)[C@H](Cc1ccccc1)NC(=O)[C@@H](NC(=O)CNC(=O)[C@@H](N)CCC(=O)O)[C@@H](C)O)[C@@H](C)CC)[C@@H](C)CC)C(=O)N[C@@H](CCCCNC(=O)CCCCCCCCCCCCCCC(=O)O)C(=O)N[C@@H](CCC(N)=O)C(=O)N[C@@H](CCC(N)=O)C(=O)N[C@@H](CC(=O)O)C(=O)N[C@@H](Cc1ccccc1)C(=O)N[C@H](C(=O)N[C@@H](CC(N)=O)C(=O)N[C@@H](Cc1c[nH]c2ccccc12)C(=O)N[C@@H](CC(C)C)C(=O)N[C@@H](CC(C)C)C(=O)N[C@@H](C)C(=O)N[C@@H](CCC(N)=O)C(=O)N[C@@H](CCCCN)C(=O)N1CCC[C@H]1C(=O)N[C@@H](CO)C(=O)N[C@@H](CO)C(=O)NCC(=O)N[C@@H](C)C(=O)N1CCC[C@H]1C(=O)N1CCC[C@H]1C(=O)N1CCC[C@H]1C(=O)N[C@@H](CO)C(=O)O)C(C)C [AT760] (H-EGTFISDYSI[Aib]MDKIK(C16 diacid)QQDFVNWLLAQKPSSGAPPPS-OH; N-terminus assumed)
Avr lag time (h) ([1]; 1 mg/ml, TFA, Phosphate (7.4)): fnd (Fnd = fibrils not detected within experiment time (96 hours) with agitation.) | Avr lag time (h) ([1]; 5 mg/ml, TFA, MilliQ): fnd (Fnd = fibrils not detected within experiment time (96 hours) with agitation.) | Visual appearance ([2]; 1 mg/ml, TFA, Phosphate (7.4)): Clear | Visual appearance ([2]; 5 mg/ml, TFA, MilliQ): Clear

CC[C@H](C)[C@H](NC(=O)[C@H](CCCCN)NC(=O)[C@H](CC(=O)O)NC(=O)[C@H](CCSC)NC(=O)C(C)(C)NC(=O)[C@@H](NC(=O)[C@H](CO)NC(=O)[C@H](Cc1ccc(O)cc1)NC(=O)[C@H](CC(=O)O)NC(=O)[C@H](CO)NC(=O)[C@@H](NC(=O)[C@H](Cc1ccccc1)NC(=O)[C@@H](NC(=O)CNC(=O)CCCC(=O)O)[C@@H](C)O)[C@@H](C)CC)[C@@H](C)CC)C(=O)N[C@@H](CCCCNC(=O)CCCCCCCCCCCCCCC(=O)O)C(=O)N[C@@H](CCC(N)=O)C(=O)N[C@@H](CCC(N)=O)C(=O)N[C@@H](CC(=O)O)C(=O)N[C@@H](Cc1ccccc1)C(=O)N[C@H](C(=O)N[C@@H](CC(N)=O)C(=O)N[C@@H](Cc1c[nH]c2ccccc12)C(=O)N[C@@H](CC(C)C)C(=O)N[C@@H](CC(C)C)C(=O)N[C@@H](C)C(=O)N[C@@H](CCC(N)=O)C(=O)N[C@@H](CCCCN)C(=O)N1CCC[C@H]1C(=O)N[C@@H](CO)C(=O)N[C@@H](CO)C(=O)NCC(=O)N[C@@H](C)C(=O)N1CCC[C@H]1C(=O)N1CCC[C@H]1C(=O)N1CCC[C@H]1C(=O)N[C@@H](CO)C(=O)O)C(C)C [AT763] (Glutaryl-GTFISDYSI[Aib]MDKIK(C16 diacid)QQDFVNWLLAQKPSSGAPPPS-OH)
Avr lag time (h) ([1]; 1 mg/ml, TFA, Phosphate (7.4)): fnd (Fnd = fibrils not detected within experiment time (96 hours) with agitation.) | Avr lag time (h) ([1]; 5 mg/ml, TFA, MilliQ): fnd (Fnd = fibrils not detected within experiment time (96 hours) with agitation.) | Avr lag time (h) ([1]; 5 mg/ml, TFA, Phosphate): fnd (Fnd = fibrils not detected within experiment time (96 hours) with agitation.) | Fibril formation (FIG. 1) ([1]; in phosphate buffer, about 94 h, orbital rotation): does not form fibrils | Visual appearance ([2]; 1 mg/ml, TFA, Phosphate (7.4)): Clear | Visual appearance ([2]; 5 mg/ml, TFA, MilliQ): Clear | Visual appearance ([2]; 5 mg/ml, TFA, Phosphate): Clear

I: EGTFISEYSI[Aib]LEKIKQQEFVEWLLAQKPSSGAPPPS-OH / II: {C16 diacid}-GGGGS (amide I:16-II:C) [AT722]
Avr lag time (h) ([1]; 1 mg/ml, TFA, Phosphate (7.4)): fnd (Fnd = fibrils not detected within experiment time (96 hours) with agitation.) | Avr lag time (h) ([1]; 7.5 mg/ml, Na, MilliQ (8)): fnd (Fnd = fibrils not detected within experiment time (96 hours) with agitation.) | Avr lag time (h) ([1]; 15 mg/ml, Na, MilliQ (8)): fnd (Fnd = fibrils not detected within experiment time (96 hours) with agitation.) | Visual appearance ([2]; 1 mg/ml, TFA, Phosphate (7.4)): Clear | Visual appearance ([2]; 7.5 mg/ml, Na, MilliQ (8)): Clear | Visual appearance ([2]; 15 mg/ml, Na, MilliQ (8)): Clear
